Results reported in patent publication US20020005386A1, “Water based oil dispersant” (Polychemical Corporation, priority 1999, published 2002).

Columns and labels:
Mysidopsis bahia = assay: Dispersant toxicity testing, 48 hour LC50; conditions: in vivo
Description: Dispersant toxicity testing was performed by Coastal Bioanalysts.
This toxicity data was obtained using the concentrated product.

[1] = Surfactant screening test, visual emulsification of Prudhoe Bay Crude in river (sea) water; conditions: 1st set: pure surfactant, 10 ml added to 100 microliter PBC in 120 ml water; shaken 50 times, stand 10 min
Description: 120 ml of the river (sea) water is taken in a 130 ml bottle. Add 100 micro liter(μl) of Prudhoe Bay Crude to the bottle. Add […] of the pure test surfactant. The ratio of the surfactant to oil is 1:10, as per the spec. (the only difference is instead of 100 μl of the 1:10 mixture, the volume added was 110 μl) the mix was shaken vigorously 50 times and allowed to stand 10 min. to evaluate the effectiveness of the system and compare it to COREXIT 9500 at the same ratio.
The first set was with pure surfactants, the 2nd set was with two surfactants combination with 10 μl, in a 1:3 ratio and the 3rd was with a 3 or more surfactants system with 1:3 ratio but 10 μl, 20 μl, or 30 μl addition. The results are tabulated below:
10 μl added unless otherwise stated.
A combination of the above selected surfactants was conceived and formulations with the following variations were evaluated: […]

Compound | LC50 of the Control Toxicant, M. bahia (Mysidopsis bahia) | APPEARANCE STABILITY OF EMULSION [1]
CCCCCCCCCCCCOS(=O)(=O)[O-].[Na+] [Dss] | The Control Toxicant (Dss): M. bahia 9.82 ppm | 
CCCCCCCC/C=C\CCCCCCCC(=O)OCC(O)CO (centres unmarked) [GMO, Glyceryl mono oleate] |  | Not good
